How the values were obtained:
[1] = target: Menin protein (Homo sapiens, UniProt O00255, DEL460-519); assay: Menin/MLL fluorescence polarization (FP) assay; format: binding; settings: Menin 2 nM, cRho110-Ahx-MBM1/MBM2 peptide 1 nM
Outline: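 Fluorescence polarization of 1 nM cRho110-labelled MBM1/MBM2 peptide with 2 nM His-tagged Menin in 50 mM Tris pH 7.5, 50 mM NaCl, 1 mM TCEP, 0.01% BGG, 0.01% Brij-35. Compound series: 10-fold dilutions from 10 μM; 480/535 nm, read every 5 min for 180 min. IC50 via one-site fit, normalized to no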

[2] = target: hERG (Homo sapiens (Human), UniProt Q12809); assay: hERG assay 2, QPatch II 48X, room temperature; format: cell-based; settings: hERG DUO cell line, top 200 μM
Sequence of hERG (Q12809 whole entry): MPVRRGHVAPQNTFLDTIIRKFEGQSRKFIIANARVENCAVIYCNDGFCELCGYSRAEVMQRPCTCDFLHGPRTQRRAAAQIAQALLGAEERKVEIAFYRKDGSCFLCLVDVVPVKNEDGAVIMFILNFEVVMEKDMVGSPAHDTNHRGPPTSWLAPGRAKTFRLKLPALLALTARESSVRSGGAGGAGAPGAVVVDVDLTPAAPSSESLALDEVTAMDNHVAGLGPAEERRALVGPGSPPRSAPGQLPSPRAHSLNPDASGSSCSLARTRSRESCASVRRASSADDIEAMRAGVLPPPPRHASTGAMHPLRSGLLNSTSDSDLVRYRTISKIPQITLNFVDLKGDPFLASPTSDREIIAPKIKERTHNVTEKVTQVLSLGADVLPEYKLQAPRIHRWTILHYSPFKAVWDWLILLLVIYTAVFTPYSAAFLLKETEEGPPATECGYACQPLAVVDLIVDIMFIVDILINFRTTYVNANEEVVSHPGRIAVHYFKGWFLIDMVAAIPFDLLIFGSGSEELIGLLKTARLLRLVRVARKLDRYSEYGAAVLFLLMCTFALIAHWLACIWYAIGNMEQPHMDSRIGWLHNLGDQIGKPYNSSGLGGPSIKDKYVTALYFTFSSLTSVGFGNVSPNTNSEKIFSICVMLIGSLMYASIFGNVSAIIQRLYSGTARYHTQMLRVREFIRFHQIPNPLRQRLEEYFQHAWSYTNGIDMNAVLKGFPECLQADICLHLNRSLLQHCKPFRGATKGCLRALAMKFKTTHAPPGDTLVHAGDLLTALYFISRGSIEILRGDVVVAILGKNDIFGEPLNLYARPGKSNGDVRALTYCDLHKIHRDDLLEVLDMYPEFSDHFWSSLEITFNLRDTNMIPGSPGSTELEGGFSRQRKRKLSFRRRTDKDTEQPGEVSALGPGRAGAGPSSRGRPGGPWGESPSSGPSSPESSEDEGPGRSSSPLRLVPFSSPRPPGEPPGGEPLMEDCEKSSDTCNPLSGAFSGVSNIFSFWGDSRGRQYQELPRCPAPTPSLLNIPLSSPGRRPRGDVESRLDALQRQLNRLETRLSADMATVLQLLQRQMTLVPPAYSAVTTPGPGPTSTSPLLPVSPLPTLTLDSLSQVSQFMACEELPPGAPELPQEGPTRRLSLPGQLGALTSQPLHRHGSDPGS
Description: Experiments were performed on the QPatch II 48X (Sophion Biosciences) high throughput patch clamp platform at room temperature and used single hole Qplates. hERG DUO cell line (BSys) was used. The internal patch clamp solution was KF 60 mM, KCl 70 mM, HEPES 10 mM, EGTA 10 mM, and 5 mM Mg ATP (pH7.2). After sealing and whole cell access was gained the external solution (NaCl 140 mM, KCl 4 mM, HEPES 10 mM, CaCl2 2 mM, MgCl2 1 mM, glucose 5 mM (pH 7.4) was applied twice to establish stable baseline currents. An industry standard +40/−40 mV voltage protocol was applied every 15 seconds. All compounds were tested in a 6-point cumulative assay (final DMSO concentration 0.4-2% depending on stock concentration of compounds). Compounds were dispensed from initial 10 mM or 50 mM DMSO stocks after which DMSO dilutions were undertaken with a top concentration of 200 μM tested. Solvent controls were run in all experiments in line with the DMSO % required. Only wells that passed acceptance criteria for this platform were used in this analysis (500 MegaOhm seal resistance and current size >0.2 nA). Analysis was completed in Prism Graphpad to complete a composite IC50, by plotting % inhibition versus log compound concentration and using a log(inhibitor) vs. response—Variable slope.

[3] = target: hERG ion channel (Homo sapiens (Human), UniProt Q12809); assay: hERG assay 3, QPatchII 48X, 30 degrees Celsius; format: cell-based; settings: CHO cells
Sequence of hERG ion channel (Q12809 whole entry): as above
Description: Experiments were performed on the QPatchII 48X(Sophion Biosciences) high throughput patch clamp platform at 30 degrees Celsius using single holes QChips (Sophion Bioscience). Chinese hamster ovary K1 (CHO) cell lines over-expressing the hERG ion channel were used from live culture. All compounds were dispensed as solid stocks in glass vials. Compounds were solubilised to 10 or 50 mM DMSO stocks on the day of experiments, after which dilutions in DMSO we undertaken. Stamps of DMSO stocks were made into an MTP plate using glass vials, after which extracellular solution was backfilled creating testing concentrations with a highest concentration of 40 and 200 μM, respectively. The internal patch clamp solution was KF 60 mM, KCl 70 mM, HEPES 10 mM, EGTA 10 mM, and 5 mM Mg ATP (pH7.2).

[4] = tested on: DFAL-49600; assay: MLLr AML patient derived disseminated xenograft model DFAL-49600; format: in vivo, female NSG mice; settings: 150 mg/kg oral twice daily, 21 days
Description: Viably frozen A. CBAM-68552, B. CBAM-44728, and C. DFAL-49600 single cell suspensions from spleens of donor mice were prepared into frozen stock. Flow cytometry antibodies for Ter119 (Miltenyi 130-112-914), mouse CD45 (Miltenyi 130-110-665), and human CD45 (Miltenyi 130-110-634) and Fixable Live Dead Stain (ThermoFisher; #L34963) for disease evaluation via flow cytometry on MACSQuant (Miltenyi). Compound 56-2 was formulated in water at pH 4.5-5 using 1M MSA as pH-adjusting agent at concentrations up to 100 mg/mL to achieve a uniform suspension and dosed twice daily by oral gavage 10 mL/kg.
A. CBAM-68552, B. CBAM-44728, and C. DFAL-49600 cells were thawed and 1 million cells implanted via the tail vein in to female NSG mice. Mice were randomized into groups of 5 when human CD45 levels reached average of A. CBAM-68552 6.5%, B. CBAM-44728 4.8%, and C. DFAL-49600 12.4% in the bone marrow of satellite animals. Mice were treated for 21 days with vehicle (water at pH 4.5-5 using 1 M MSA) or Compound 56-2 at 150 mg/kg. Compound 56-2 was dosed orally twice daily 8/16 hours apart and mice were monitored for overall survival. FIGS. 3-A, 3-B, and 3-C further illustrate the effect of treatment with Compound 56-2 in human MLLr AML Patient Derived Disseminated Xenograft Models A. CBAM-68552, B. CBAM-44728, and C. DFAL-49600, respectively.

[5] = target: muscarinic M2 receptor (Homo sapiens (Human), UniProt P08172); assay: Muscarinic M2 receptor functional assay, antagonist effect (assay 2); format: cell-based; settings: cAMP, 1 μM acetylcholine
Sequence of muscarinic M2 receptor (P08172 whole entry): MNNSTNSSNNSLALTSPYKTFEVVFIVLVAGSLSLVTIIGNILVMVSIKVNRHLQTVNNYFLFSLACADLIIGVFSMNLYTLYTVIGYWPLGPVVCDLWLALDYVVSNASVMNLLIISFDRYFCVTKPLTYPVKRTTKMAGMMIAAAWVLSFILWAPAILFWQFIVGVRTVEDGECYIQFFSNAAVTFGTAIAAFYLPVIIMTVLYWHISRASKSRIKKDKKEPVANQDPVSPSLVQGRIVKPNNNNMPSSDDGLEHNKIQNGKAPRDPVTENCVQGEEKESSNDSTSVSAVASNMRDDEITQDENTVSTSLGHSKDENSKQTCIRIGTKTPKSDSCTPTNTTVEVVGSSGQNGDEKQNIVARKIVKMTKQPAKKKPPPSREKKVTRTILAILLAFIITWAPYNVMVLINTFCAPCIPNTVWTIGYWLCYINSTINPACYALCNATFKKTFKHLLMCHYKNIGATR
Description: Thereafter, the reference agonist acetylcholine and the adenylyl cyclase activator NKH 477 were added at respective final concentrations of 1 μM and 5 μM. For basal control measurements, acetylcholine was omitted from the wells containing 10 μM methoctramine. Following 10 minutes incubation at 37° C., the cells were lysed, and the fluorescence acceptor (D2-labeled cAMP) and fluorescence donor (anti-cAMP antibody labelled with europium cryptate) were added. After 60 minutes at room temperature, the fluorescence transfer was measured at λex=337 nm and λem=620 and 665 nm using a microplate reader (Rubystar, BMG). The cAMP concentration was determined by dividing the signal measured at 665 nm by that measured at 620 nm (ratio). The results were expressed as a percent inhibition of the control response to 1 μM acetylcholine. For test compounds and for standard reference antagonist methoctramine, which is tested in each experiment, assays were run in eight-point concentration response mode and IC50 values determined following non-linear regression curve analysis. Curve analysis was completed using software developed at Cerep (Hill software) and validated by comparison with data generated by the commercial software SigmaPlot®4.0 for Windows® (© 1997 by SPSS Inc.).

Sequence of Menin protein (O00255 with tags, fused parts or gaps DEL460-519): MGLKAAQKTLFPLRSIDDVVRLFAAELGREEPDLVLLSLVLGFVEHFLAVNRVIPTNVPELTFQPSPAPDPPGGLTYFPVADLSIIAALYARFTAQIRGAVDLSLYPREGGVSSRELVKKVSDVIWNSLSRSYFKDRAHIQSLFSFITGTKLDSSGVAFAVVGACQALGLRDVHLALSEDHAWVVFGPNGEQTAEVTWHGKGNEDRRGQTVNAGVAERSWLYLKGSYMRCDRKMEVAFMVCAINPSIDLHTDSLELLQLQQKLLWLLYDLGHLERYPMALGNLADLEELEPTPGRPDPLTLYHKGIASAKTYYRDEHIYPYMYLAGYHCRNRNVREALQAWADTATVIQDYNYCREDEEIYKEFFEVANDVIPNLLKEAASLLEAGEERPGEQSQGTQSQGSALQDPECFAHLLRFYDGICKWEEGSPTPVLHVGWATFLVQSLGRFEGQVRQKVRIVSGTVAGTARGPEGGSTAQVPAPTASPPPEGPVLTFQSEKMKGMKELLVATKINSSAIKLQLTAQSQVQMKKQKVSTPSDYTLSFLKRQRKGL

Row | SMILES | IC50 [1] [µM] | IC50 [2] [µM] | IC50 [3] [µM] | LATENCY (overall survival) [4] [days] | IC50 [5] [µM]
1 | Cc1c(C(=O)C2CCN(C(=O)[C@@H]3CCC(C)(C)N3)CC2)c2ccncc2n1-c1ccc(F)cc1C(=O)N(C(C)C)C(C)C (single isomer, unassigned) [Compound 56-2] | 0.043 | 138 | 42.9 | 161 | 
2 | CC(C)c1ncccc1-c1cc(F)ccc1-n1cc(C(=O)C2CN(C(=O)[C@H]3N[C@@H]4CC[C@H]3C4)C2)c2ccncc21 [Example 10, (1-((1R,3S,4S)-2-Azabicyclo[2.2.1]heptane-3-carbonyl)azetidin-3-yl)(1-(4-fluoro-2-(2-isopropylpyridin-3-yl)phenyl)-1H-pyrrolo[2,3-c]pyridin-3-yl)methanone] |  | 79.1 | 33.8 |  | 
3 | Cc1c(C(=O)C2CCN(C(=O)[C@@H]3CCC4(CC4)N3)CC2)c2ccncc2n1-c1ccc(F)cc1C(=O)N1[C@H](C)COC[C@H]1C (single isomer, unassigned) [Example 58-2] | 0.03 |  | 111 |  | 8.6
4 | CC(C)N(C(=O)c1cc(F)ccc1-n1cc(C(=O)C2CCN(C(=O)[C@H]3NC4CCC3CC4)CC2)c2ccncc21)C(C)C [Example 20, (S)-2-(3-(1-(2-Azabicyclo[2.2.2]octane-3-carbonyl)piperidine-4-carbonyl)-1H-pyrrolo[2,3-c]pyridin-1-yl)-5-fluoro-N,N-diisopropylbenzamide] | 0.022 | > 200 |  |  | 5.2

Source: patent US20240335431A1, “1-H-PYRROLO[2,3-c]PYRIDINE COMPOUNDS” (Acerta Pharma B.V., priority 2023, published 2024)
